Structures are written as SMILES.

One assay deals with TSLP. Put plainly: Systemic TSLP induction by topical vitamin D3 analogs (ELISA). It counts as in vivo, mice. The conditions noted are these: topical, ear skin bilaterally, 2 nmol/ear in ethanol, after 5 days of treatment. Background: In an ELISA, binding on a coated surface is turned into a signal by an enzyme label.
The test system of assay [1] is regulatory T cells (Tregs). Nature of the assay: Topical MC903 on ear skin of wildtype mice, fraction of Tregs in skin, blood and lymphoid organs. The assay is classed as in vivo. To be noted: 2 nmol. The source says: FIGS. 1A-1B comprise graphs relating to topical treatment of B6 mice with EtOH or MC903 (2 nmol) on one ear. FIG. 1A, comprising FACS data and a graph, illustrates the percentage of regulatory T cells (Tregs) in the ear skin homogenate of B6 mice. “Treated” refers to topical administration of MC903 to the ear skin of the B6 mice. “Untreated” refers to topical administration of EtOH to the ear skin of the B6 mice. FIG. 1B comprises graphs illustrating the percentage of Tregs out of CD4+ T cells in the blood, spleen, and peripheral lymph nodes of B6 mice topically treated with MC903. FIG. 2 is a graph illustrating the percentage of Tregs out of CD4+ T cells in the spleen after B6 mice were treated topically or injected intraperitoneally with EtOH or MC903 (2 nmol). Wildtype (WT) mice were treated with vehicle (100% EtOH) or MC903 once a day on the skin of one ear for 7 days. On Day 8, the ear skin of both ears, blood, and secondary lymphoid organs (lymph nodes and spleen) were harvested.

The test system of assay [2] is thymic stromal lymphopoietin (TSLP). Nature of the assay: Circulating (serum) TSLP level over time after topical MC903. The assay is classed as in vivo, mice. The conditions noted are these: topical MC903, treatment stopped on Day 7; fell abruptly by Day 9. From the text: FIG. 3A-3C comprise graphs illustrating data derived from topical treatment of B6 mice with EtOH or MC903 (2 nmol) until […]. Mice were taken at different time points post treatment initiation as indicated. FIG. 3A is a graph illustrating the percentage of Tregs out of CD4+ T cells in the spleen and blood of B6 mice over 18 days. FIG. 3B illustrates the absolute numbers of Tregs in the spleen of B6 mice over 18 days. FIG. 3C illustrates the serum thymic stromal lymphopoietin (TSLP) level change over time in B6 mice over 18 days.
(§1) Next, the kinetics of the systemic increase in Treg levels was investigated after topical MC903 treatment (treatment stopped on Day 7). The absolute number and the fraction of Tregs increased to a peak between days 6 and 9 and gradually declined thereafter in the spleen and the blood of MC903-treated mice (FIGS. 3A-3B). Circulating TSLP levels peaked at Day 6 and fell abruptly by Day 9 (FIG. 3C).

Assay [3] concerns Tregs and conventional CD4+ T cells (Tconvs). Put plainly: BrdU incorporation in splenic Tregs and conventional T cells. The assay is classed as in vivo, mice. To be noted: spleen, Day 8, topical 2 nmol daily.
From the text: FIGS. 4A-4B comprise graphs illustrating data derived from topical treatment of B6 mice with EtOH or MC903 (2 nmol) daily and BrdU (intraperitoneal injection as a loading dose, followed by administration of drinking water) for the last 3 days. FIG. 4A illustrates Bromodeoxyuridine (BrdU) incorporation in Tregs on Day 8 in the spleen of B6 mice. FIG. 4B illustrates BrdU incorporation in conventional T cells (Tconvs) on Day 8 in the spleen of B6 mice.
as §1

Another assay relates to B6 mice. Nature of the assay: K/BxN serum-induced arthritis mouse model, topical MC903. It counts as in vivo. The protocol:
FIGS. 8A-8B comprise graphs illustrating data derived from injecting B6 mice with 75 μl of serum from K/B×N mice on Days 0 and 2, and topically treating the mice with MC903 starting at Day 0. FIG. 8A illustrates the percentage of Tregs in blood of B6 mice determined on Day 8 post MC903 treatment in comparison with EtOH treatment. FIG. 8B illustrates the change of ankle thickness over time after B6 mice were injected with 75 μl of serum from K/B×N mice on Days 0 and 2, and were topically treated with MC903 starting at Day 0. Ankle thickness was measured twice a week and plotted as % maximal ankle thickness of each mouse. N=3 mice/group. Whether MC903 treatment can attenuate joint swelling in a mouse model of rheumatoid arthritis was tested in the following experiment. In this model, serum from arthritic mice (K/B×N) is injected into normal wildtype mice. […] Mice were treated topically with MC903 or EtOH (daily) and injected with arthritogenic serum (on Days 0 and 2).

The next assay concerns ApoE KO mice. Put plainly: ApoE KO mouse model of atherosclerosis, topical MC903. To be noted: high fat Western diet, topical 3 times/week every other week for 10 weeks. The assay is classed as in vivo. The source says:
FIGS. 6A-6B comprise graphs illustrating data derived from topical treatment of ApoE KO mice fed a high-fat Western diet with EtOH or MC903 (2 nmol) 3 times/week every other week for 10 weeks. FIG. 6A illustrates the total cholesterol levels at baseline, at week 3, and week 10 of ApoE KO mice. FIG. 6B illustrates the atherosclerotic plaques difference among ApoE KO mice. The full length of the aorta was removed from the mice at week 10 and stained with Oil Red O dye to detect atherosclerotic plaques. The area occupied by the plaque was calculated and divided by the total area of the aorta (% lesion area). N=7 mice/group. * indicates significance of p<0.01 by T-test.
The effects of topical application of MC903 on atherosclerotic plaques were investigated. Atherosclerosis is a disease condition where lipid deposition occurs in arterial walls, leading to obstruction of blood flow. Ultimately, these lesions cause morbidity and mortality by affecting blood flow to the heart (myocardial infarction; angina) or the brain (stroke). Although these lesions are formed by cholesterol deposits in patients who have hypercholesterolemia, immune activation is necessary for plaque progression, and Tregs are implicated in dampening the progression of atherosclerosis. It is contemplated that topical MC903 treatment can attenuate plaque progression in atherosclerosis. […]

For the next assay, the system named is Tregs. Nature of the assay: Treg % in blood and spleen after topical vitamin D3 analogs. The assay is classed as in vivo, mice. To be noted: topical MC903, summary statement of Example 6. The source says: FIGS. 10A-10B comprise bar graphs illustrating data derived from topically treating mice with EtOH or EB1089 (0.04 nmol/ear) for 5 days and bleeding them on Day 7. Treg % from (FIG. 10A) blood and (FIG. 10B) spleen are illustrated. N=3 mice/group. *p<0.01 by Student t-test.
VDR stimulation of keratinocytes led to TSLP production, which in certain embodiments caused increase in Treg numbers. The effects of two vitamin D3 analogs (22-Oxacalcitriol, also known as 22-OXA, and EB1089) on TSLP production and Treg numbers were evaluated. Similarly to MC903, 22-OXA and EB1089 were applied to the ear skin bilaterally at a dose of 2 nmol/ear dissolved in ethanol. After 5 days of treatment, the mice were bled and serum TSLP levels were measured. […] To avoid the toxic effect, the dose of 22-OXA and EB1089 was lowered to a point where morbidity and mortality of mice was not observed (0.4 nmol/ear for 22-OXA; 0.04 nmol/ear for EB1089). At this dose, no increase in TSLP level was detected in 22-OXA-treated mice (FIG. 9B).

For `C=C1/C(=C\C=C2/CCC[C@]3(C)[C@@H]([C@H](C)/C=C/[C@@H](O)C4CC4)CC[C@@H]23)C[C@@H](O)C[C@@H]1O` [MC903, 26,27-cyclo-22-ene-1α,24S-dihydroxyvitamin D3], the “serum TSLP levels” value in the assay on TSLP is on record as “can induce TSLP production”. The “effect on Tregs (spleen) when injected intraperitoneally” value in assay [1] (intraperitoneal injection) is “No effect”. Further, the “increase in the fraction of Tregs (% Foxp3+ of CD4+ T cells) in treated ear skin” value in assay [1] (topical once a day on one ear for 7 days, Day 8, compared to EtOH-treated side) was “about 2 fold”. Besides, in assay [2], the “time of peak of circulating TSLP levels” value turned out to be 6 days. Moreover, in assay [3], the “BrdU incorporation by Tregs” value is listed as “enhanced” and the “BrdU incorporation by conventional CD4+ T cells (Tconvs)” value is on record as “no significant increase”. For the same compound, the “joint swelling and erythema after Day 7” value in the assay with B6 mice (concomitant with the elevated Treg percentages) is reported as “quick reduction”. For the same compound, the “circulating Treg levels” value in the assay on B6 mice (mice injected with arthritogenic serum, topical daily) is given as “increased”. In addition, in the assay on ApoE KO mice, the “decrease of % of area occupied by the plaques in the aorta” value is recorded as greater than 50% and the total cholesterol levels result is on record as “did not alter”. Also, in the assay with Tregs, the “systemic Treg numbers” value is reported as “increase systemic Treg numbers”.

For the origin of these results see patent US11752159B2, “Compositions and methods for suppressing or reducing systemic immune response in a subject” (THE TRUSTEES OF THE UNIVERSITY OF PENNSYLVANIA, priority 2015, dated 2023).
